From patent US8475804B2 (priority 2009, dated 2013)
Counter-ions that a name gives are not always drawn. Like-named read-outs stand apart in the source and are kept apart here. Non-standard residues stand in square brackets, D forms with d. Residues, ends and D or L forms follow the SMILES beside them. *: point of attachment. Nva = CCC[C@H](N)C(=O)O; Cbz = O=C(OCc1ccccc1)*

Test system: Ebola virus
Assay: microbe, parasite or virus in culture
Format: cell-based, Ebolavirus (EBOV)
Settings: for Emax: read-out: Max Effect

CN(C)C(=O)C(CCN1CCC(O)(c2ccc(Cl)cc2)CC1)(c1ccccc1)c1ccccc1 [Loperamide]
Max Effect: 0.716

CCOC(=O)N1CCC(=C2c3ccc(Cl)cc3CCc3cccnc32)CC1 [Loratadine]
Emax (Zaire ebolavirus, Vero): 37.1%

CCC[C@@H](C=O)NC(=O)[C@H](CC(C)C)NC(=O)[C@H](CC(C)C)NC(=O)OCc1ccccc1 [MG115] (Cbz-Leu-Leu-[Nva]-aldehyde)
Max Effect: 0.693 | IC50 (read-out: IC50): 0.9 µM

CC(C)C[C@@H](C=O)NC(=O)[C@H](CC(C)C)NC(=O)[C@H](CC(C)C)NC(=O)OCc1ccccc1 [MG-132] (Cbz-Leu-Leu-Leu-aldehyde)
IC50 (Zaire ebolavirus, Vero): < 0.6 µM | Emax (Zaire ebolavirus, Vero): 90%

CO[C@@H]1[C@@H](OC)[C@H](C)[C@@](O)(CC(=O)O)O[C@H]1[C@H](C)[C@H]1O[C@@]2(CC[C@@](C)([C@H]3CC[C@@](C)([C@@H]4O[C@@H]([C@H]5O[C@](C)(O)[C@H](C)C[C@@H]5C)C[C@@H]4O[C@@H]4C[C@H](OC)[C@@H](OC)[C@H](C)O4)O3)O2)C[C@H](O)[C@H]1C [Maduramicin NH4]
Emax (Zaire ebolavirus, Vero): 45.2%

O=S(=O)([O-])[O-].[Mg+2] [Magnesium Sulfate]
Max Effect: 0.719 | IC50 (read-out: IC50): 9.2 µM

COC(=O)Nc1nc2ccc(C(=O)c3ccccc3)cc2[nH]1 [Mebendazole]
IC50 (Zaire ebolavirus, Vero): 0.7 µM | Emax (Zaire ebolavirus, Vero): 50%

CN1C[C@H](CNC(=O)OCc2ccccc2)C[C@@H]2c3cccc4c3c(cn4C)C[C@H]21 [Metergoline]
IC50 (Zaire ebolavirus, Vero): 6.1 µM | Emax (Zaire ebolavirus, Vero): 57.7%

CN1CCC(CN2c3ccccc3Sc3ccccc32)C1 (centres unmarked) [Methdilazine Hydrochloride]
IC50 (Zaire ebolavirus, Vero): 7.1 µM | Emax (Zaire ebolavirus, Vero): 51.9%

COc1c(C)c2c(c(O)c1C/C=C(\C)CCC(=O)O)C(=O)OC2 [Mycophenolic Acid]
IC50 (Zaire ebolavirus, Vero): < 1 µM | Emax (Zaire ebolavirus, Vero): 80%

Nc1ccc(C(=O)N[C@@H](CCC(=O)O)C(=O)O)cc1 [N-(4-Aminobenzoyl)-L-glutamic acid]
IC50 (Zaire ebolavirus, Vero): 9.7 µM | Emax (Zaire ebolavirus, Vero): 85.5%

COc1ccc(OC)c2c(=S)c3ccccc3[nH]c12 [NSC 625987]
Max Effect: 0.418

O=C(Nc1ccc([N+](=O)[O-])cc1Cl)c1cc(Cl)ccc1O [Niclosamide]
IC50 (Zaire ebolavirus, Vero): 2.6 µM | Emax (Zaire ebolavirus, Vero): 84.2%

COC(=O)Nc1nc2ccc(C(=O)c3cccs3)cc2[nH]1 [Nocodazole]
IC50 (Zaire ebolavirus, Vero): 0.5 µM | Emax (Zaire ebolavirus, Vero): 80%

CCCCCCCCOC(=O)c1cc(O)c(O)c(O)c1 [Octyl Gallate]
Emax (Zaire ebolavirus, Vero): 43.9%

C=C1[C@@H](O)[C@@H]2O[C@]3(CC[C@H](/C=C/[C@@H](C)[C@@H]4CC(C)=C[C@@]5(O[C@H](C[C@@](C)(O)C(=O)O)CC[C@H]5O)O4)O3)CC[C@H]2O[C@@H]1[C@@H](O)C[C@H](C)[C@H]1O[C@@]2(CCCCO2)CC[C@H]1C [Okadaic Acid]
Emax (Zaire ebolavirus, Vero): 48.8%

CC[C@H]1/C=C/C=C/C[C@@H](C)[C@H](O)[C@@](C)(O)C(=O)[C@@H](C)[C@H](O)[C@@H](C)C(=O)[C@@H](C)[C@H](O)[C@@H](C)/C=C/C(=O)O[C@@H]2[C@H](C)[C@H](CC1)O[C@]1(CC[C@H](C)[C@H](C[C@@H](C)O)O1)[C@H]2C [Oligomycin]
Emax (Zaire ebolavirus, Vero): 42.6%

O=c1[nH]c2ccccc2n1CCCN1CCN(C(c2ccccc2)c2ccccc2)CC1 [Oxatomide]
IC50 (Zaire ebolavirus, Vero): 2.1 µM | Emax (Zaire ebolavirus, Vero): 62.2%

CCCOc1ccc2nc(NC(=O)OC)[nH]c2c1 [Oxibendazole]
Emax (Zaire ebolavirus, Vero): 47.2%

CCCCCCCCCC(=O)NC(CN1CCOCC1)C(O)c1ccccc1.Cl (centres unmarked) [PDMP Hydrochloride]
Max Effect: 0.390

O=C(OC[C@H]1O[C@@H](OC(=O)c2cc(O)c(O)c(O)c2)[C@H](OC(=O)c2cc(O)c(O)c(O)c2)[C@@H](OC(=O)c2cc(O)c(O)c(O)c2)[C@@H]1OC(=O)c1cc(O)c(O)c(O)c1)c1cc(O)c(O)c(O)c1 [PGG (1,2,3,4,6-b-O-Pentagalloyl glucose), 1,2,3,4,6-b-O-Pentagalloyl glucose]
Max Effect: 0.487 | IC50 (read-out: IC50): 3.2 µM

O=C1Nc2ccc3ncsc3c2/C1=C/c1cnc[nH]1 [PKR inhibitor]
Max Effect: 0.434

CCCCCCCCCCCCCC(=O)O[C@@H]1[C@@H](C)[C@@]2(O)[C@@H](C=C(CO)C[C@]3(O)C(=O)C(C)=C[C@@H]23)[C@@H]2C(C)(C)[C@]12OC(C)=O [PMA]
Max Effect: 0.800 | IC50 (read-out: IC50): < 0.18 µM

N=C(N)c1ccc(OCCCCCOc2ccc(C(=N)N)cc2)cc1 [Pentamidine]
IC50 (Zaire ebolavirus, Vero): 10.5 µM | Emax (Zaire ebolavirus, Vero): 42.2%

CCCN1C[C@H](CSC)C[C@@H]2c3cccc4[nH]cc(c34)C[C@H]21 [Pergolide Mesylate]
Emax (Zaire ebolavirus, Vero): 38.3%

C1CCC(C(CC2CCCCN2)C2CCCCC2)CC1 (centres unmarked) [Perhexiline Maleate]
IC50 (Zaire ebolavirus, Vero): 4.1 µM | Emax (Zaire ebolavirus, Vero): 89%

OCCN1CCN(CCCN2c3ccccc3Sc3ccc(Cl)cc32)CC1 [Perphenazine]
IC50 (Zaire ebolavirus, Vero): 5.8 µM | Emax (Zaire ebolavirus, Vero): 79.3%

COc1cc([C@@H]2c3cc4c(cc3[C@H](O)[C@H]3COC(=O)[C@H]23)OCO4)cc(OC)c1OC [Podofilox]
IC50 (Zaire ebolavirus, Vero): 1.8 µM | Emax (Zaire ebolavirus, Vero): 80%

CCC(=O)O[C@](Cc1ccccc1)(c1ccccc1)[C@H](C)CN(C)C [Propoxyphene Hydrochloride]
Emax (Zaire ebolavirus, Vero): 42.2%

COc1ccc(C[C@H](N)C(=O)N[C@H]2[C@@H](O)[C@H](n3cnc4c(N(C)C)ncnc43)O[C@@H]2CO)cc1 [Puromycin dihydrochloride]
IC50 (Zaire ebolavirus, Vero): 6.6 µM | Emax (Zaire ebolavirus, Vero): 83.5%

[O-][n+]1ccccc1[S-].[O-][n+]1ccccc1[S-].[Zn+2] [Pyrithione Zinc]
Max Effect: 0.767

Cc1cc(/C=C/c2ccc3cc(N(C)C)ccc3[n+]2C)c(C)n1-c1ccccc1 [Pyrvinium Pamoate]
IC50 (Zaire ebolavirus, Vero): 3.4 µM | Emax (Zaire ebolavirus, Vero): 80%

C#C[C@]1(O)CC[C@H]2[C@@H]3CCc4cc(OC5CCCC5)ccc4[C@H]3CC[C@@]21C [Quinestrol]
IC50 (Zaire ebolavirus, Vero): 7.2 µM | Emax (Zaire ebolavirus, Vero): 54.9%

O=C(c1ccc(OCCN2CCCCC2)cc1)c1c(-c2ccc(O)cc2)sc2cc(O)ccc12 [Raloxifene Hydrochloride]
IC50 (Zaire ebolavirus, Vero): 2.4 µM | Emax (Zaire ebolavirus, Vero): 69.1%

COC(=O)[C@H]1[C@H]2C[C@@H]3c4[nH]c5cc(OC)ccc5c4CCN3C[C@H]2C[C@@H](OC(=O)/C=C/c2cc(OC)c(OC)c(OC)c2)[C@@H]1OC [Rescinnamine]
Emax (Zaire ebolavirus, Vero): 51.2%

CC(C)c1nc(CN(C)C(=O)N[C@H](C(=O)N[C@@H](Cc2ccccc2)C[C@H](O)[C@H](Cc2ccccc2)NC(=O)OCc2cncs2)C(C)C)cs1 [Ritonavir]
Emax (Zaire ebolavirus, Vero): 48.5%

C=C(C)[C@H]1Cc2c(ccc3c2O[C@@H]2COc4cc(OC)c(OC)cc4[C@@H]2C3=O)O1 [Rotenone]
IC50 (Zaire ebolavirus, Vero): < 2 µM | Emax (Zaire ebolavirus, Vero): 70%

Oc1c2ccccc2c2c3c(cccc13)N=N2 [SP 600125]
Emax (Zaire ebolavirus, Vero): 36.5%

NC(=O)c1cn([C@@H]2O[C@H](CO)[C@@H](O)[C@H]2O)c2ncnc(N)c12 [Sangivamycin Hydrate]
IC50 (Zaire ebolavirus, Vero): < 0.2 µM | Emax (Zaire ebolavirus, Vero): 90%

O=C([O-])O.[Na+] [Sodium Bicarbonate]
Max Effect: 0.389

CNC(=O)c1cc(Oc2ccc(NC(=O)Nc3ccc(Cl)c(C(F)(F)F)c3)cc2)ccn1 [Sorafenib Tosylate]
IC50 (Zaire ebolavirus, Vero): 3.9 µM | Emax (Zaire ebolavirus, Vero): 81.9%

CCN(CC)CCNC(=O)c1c(C)[nH]c(/C=C2\C(=O)Nc3ccc(F)cc32)c1C [Sunitinib Malate]
IC50 (Zaire ebolavirus, Vero): 4.4 µM | Emax (Zaire ebolavirus, Vero): 78.8%

CC/C(=C(\c1ccccc1)c1ccc(OCCN(C)C)cc1)c1ccccc1 [Tamoxifen]
Emax (Zaire ebolavirus, Vero): 90%

O=C(OC[C@H]1O[C@@H](OC(=O)c2cc(O)c(O)c(OC(=O)c3cc(O)c(O)c(O)c3)c2)[C@H](OC(=O)c2cc(O)c(O)c(OC(=O)c3cc(O)c(O)c(O)c3)c2)[C@@H](OC(=O)c2cc(O)c(O)c(OC(=O)c3cc(O)c(O)c(O)c3)c2)[C@@H]1OC(=O)c1cc(O)c(O)c(OC(=O)c2cc(O)c(O)c(O)c2)c1)c1cc(O)c(O)c(OC(=O)c2cc(O)c(O)c(O)c2)c1 [Tannic Acid]
Emax (Zaire ebolavirus, Vero): 54.3%

CC(C)(C)c1ccc(C(O)CCCN2CCC(C(O)(c3ccccc3)c3ccccc3)CC2)cc1 (centres unmarked) [Terfenadine]
IC50 (Zaire ebolavirus, Vero): 6.1 µM | Emax (Zaire ebolavirus, Vero): 91.4%

C/C=C(/C)C(=O)O[C@H]1C(C)=C2[C@H]([C@@H]1OC(=O)CCCCCCC)[C@@](C)(OC(C)=O)C[C@H](OC(=O)CCC)[C@@]1(O)[C@H]2OC(=O)[C@@]1(C)O [Thapsigargin]
IC50 (Zaire ebolavirus, Vero): < 0.3 µM | Emax (Zaire ebolavirus, Vero): 70%

CCSc1ccc2c(c1)N(CCCN1CCN(C)CC1)c1ccccc1S2 [Thiethylperazine Maleate]
IC50 (Zaire ebolavirus, Vero): 4.4 µM | Emax (Zaire ebolavirus, Vero): 83.2%

CSc1ccc2c(c1)N(CCC1CCCCN1C)c1ccccc1S2.Cl (centres unmarked) [Thioridazine Hydrochloride]
Max Effect: 0.915 | Max Effect Vero: 0.954 | IC50 (read-out: IC50): 4.3 µM | IC50 (read-out: IC50 (μM) Vero): 6.2 µM

C=C(NC(=O)C(=C)NC(=O)c1csc(C2=N[C@@H]3c4csc(n4)[C@H]4NC(=O)c5csc(n5)[C@H]([C@](C)(O)[C@@H](C)O)NC(=O)[C@H]5CSC(=N5)/C(=C/C)NC(=O)[C@H]([C@@H](C)O)NC(=O)c5csc(n5)[C@]3(CC2)NC(=O)[C@H](C)NC(=O)C(=C)NC(=O)[C@H](C)NC(=O)[C@H]([C@@H](C)CC)N[C@@H]2C=Cc3c([C@H](C)O)cc(nc3[C@H]2O)C(=O)O[C@@H]4C)n1)C(N)=O [Thiostrepton]
Emax (Zaire ebolavirus, Vero): 45.4%

C#C[C@]1(O)CC[C@H]2[C@@H]3[C@H](C)CC4=C(CCC(=O)C4)[C@H]3CC[C@@]21C [Tibolone]
IC50 (Zaire ebolavirus, Vero): 1.2 µM | Emax (Zaire ebolavirus, Vero): 112%

Clc1ccc(C(Cn2ccnc2)OCc2ccsc2Cl)c(Cl)c1 (centres unmarked) [Tioconazole]
IC50 (Zaire ebolavirus, Vero): 8.5 µM | Emax (Zaire ebolavirus, Vero): 72.9%

O=C(O)Cc1cc(I)c(Oc2ccc(O)c(I)c2)c(I)c1 [Tiratricol]
Emax (Zaire ebolavirus, Vero): 47.8%

CN(C)CCOc1ccc(/C(=C(/CCCl)c2ccccc2)c2ccccc2)cc1 [Toremifene]
IC50: 2.7 µM | Max Effect: 0.461

CSc1nc2cc(Cl)c(Oc3cccc(Cl)c3Cl)cc2[nH]1 [Triclabendazole]
IC50 (Zaire ebolavirus, Vero): 9.2 µM | Emax (Zaire ebolavirus, Vero): 55.2%

CN1CCN(CCCN2c3ccccc3Sc3ccc(C(F)(F)F)cc32)CC1 [Trifluoperazine Hydrochloride]
IC50 (Zaire ebolavirus, Vero): 5 µM | Emax (Zaire ebolavirus, Vero): 95.5%

CN(C)CCCN1c2ccccc2Sc2ccc(C(F)(F)F)cc21 [Triflupromazine Hydrochloride]
IC50 (Zaire ebolavirus, Vero): 12.1 µM | Emax (Zaire ebolavirus, Vero): 54.1%

CC(C)[C@]12O[C@H]1[C@@H]1O[C@]13[C@]1(O[C@H]1C[C@H]1C4=C(CC[C@@]13C)C(=O)OC4)[C@@H]2O [Triptolide]
IC50 (Zaire ebolavirus, Vero): < 0.1 µM | Emax (Zaire ebolavirus, Vero): 85%

Fc1ccc(C(OCCN2CCN(CCCc3ccccc3)CC2)c2ccc(F)cc2)cc1 [Vanoxerine]
IC50 (Zaire ebolavirus, Vero): 5.8 µM | Emax (Zaire ebolavirus, Vero): 56.4%

Acetophenazine Maleate
Max Effect: 0.478
